Source: ChEMBL document CHEMBL1817621, “SAR studies of acidic dual γ-secretase/PPARγ modulators” (Bioorg Med Chem, 2011)
Activity calls are given as the source filed them. No cut-off for these calls is given here.

Tests used:
[1] = biological target: T1, Peroxisome proliferator-activated receptor alpha (Homo sapiens) (UniProt Q07869); assay: Modulation of human PPARalpha-LBD expressed in african green monkey COS7 cells co-transfected with Gal4 assessed as activation of transactivation activity at 10 uM by luciferase assay; format: cell-based; details: COS-7
T1 sequence (whole entry): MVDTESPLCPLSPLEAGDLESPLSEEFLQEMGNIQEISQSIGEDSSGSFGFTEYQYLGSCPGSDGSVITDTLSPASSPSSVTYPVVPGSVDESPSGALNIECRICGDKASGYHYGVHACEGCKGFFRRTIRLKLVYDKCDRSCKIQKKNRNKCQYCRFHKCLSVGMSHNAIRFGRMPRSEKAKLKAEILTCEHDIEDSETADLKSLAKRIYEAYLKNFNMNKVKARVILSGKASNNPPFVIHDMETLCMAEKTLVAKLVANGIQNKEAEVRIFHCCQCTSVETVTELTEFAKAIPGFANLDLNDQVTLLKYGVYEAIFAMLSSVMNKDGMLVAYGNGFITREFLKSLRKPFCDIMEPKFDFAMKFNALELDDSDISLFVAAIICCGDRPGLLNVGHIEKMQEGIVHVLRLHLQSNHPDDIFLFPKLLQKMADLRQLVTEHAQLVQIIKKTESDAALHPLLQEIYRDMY

[2] = biological target: T2, Peroxisome proliferator-activated receptor delta (Homo sapiens) (UniProt Q03181); assay: Modulation of human PPARdelta-LBD expressed in african green monkey COS7 cells co-transfected with Gal4 assessed as activation of transactivation activity at 10 uM by luciferase assay; format: cell-based; details: COS-7
T2 sequence (whole entry): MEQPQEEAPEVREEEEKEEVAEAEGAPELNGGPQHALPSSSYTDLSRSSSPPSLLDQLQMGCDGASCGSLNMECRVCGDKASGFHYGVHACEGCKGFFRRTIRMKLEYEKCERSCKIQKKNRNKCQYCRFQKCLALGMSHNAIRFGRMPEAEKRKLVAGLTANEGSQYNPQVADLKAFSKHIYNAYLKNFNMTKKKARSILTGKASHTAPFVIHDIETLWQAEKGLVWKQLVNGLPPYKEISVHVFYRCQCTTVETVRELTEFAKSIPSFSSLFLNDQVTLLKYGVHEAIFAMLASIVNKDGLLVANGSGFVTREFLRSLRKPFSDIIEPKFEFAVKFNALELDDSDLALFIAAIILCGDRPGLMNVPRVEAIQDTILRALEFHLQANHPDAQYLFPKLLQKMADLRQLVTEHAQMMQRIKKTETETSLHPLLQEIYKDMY

[3] = biological target: T3, Peroxisome proliferator-activated receptor gamma (Homo sapiens) (UniProt P37231); assay: Modulation of human PPARgamma-LBD expressed in african green monkey COS7 cells co-transfected with Gal4 assessed as activation of transactivation activity at 10 uM by luciferase assay; format: cell-based; details: COS-7
T3 sequence (whole entry): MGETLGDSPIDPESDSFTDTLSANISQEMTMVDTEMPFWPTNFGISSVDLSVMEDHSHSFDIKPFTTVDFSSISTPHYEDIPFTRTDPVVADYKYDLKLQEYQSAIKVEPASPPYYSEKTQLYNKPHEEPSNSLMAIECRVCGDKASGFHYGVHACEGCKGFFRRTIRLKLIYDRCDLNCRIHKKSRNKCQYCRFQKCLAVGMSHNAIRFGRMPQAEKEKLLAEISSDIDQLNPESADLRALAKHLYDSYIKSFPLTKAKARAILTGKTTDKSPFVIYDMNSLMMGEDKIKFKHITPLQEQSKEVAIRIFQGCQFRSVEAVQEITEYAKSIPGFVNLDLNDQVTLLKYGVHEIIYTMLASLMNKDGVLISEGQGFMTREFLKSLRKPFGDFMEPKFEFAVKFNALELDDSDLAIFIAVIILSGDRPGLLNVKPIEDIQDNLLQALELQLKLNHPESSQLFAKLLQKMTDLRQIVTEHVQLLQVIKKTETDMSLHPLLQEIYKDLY

[4] = biological target: T4, Prostaglandin G/H synthase 1 (Ovis aries) (UniProt P05979); assay: Inhibition of ovine COX-1 assessed as residual activity by measuring formation of 12-HHT from arachidonic acid at 10 uM by HPLC analysis
T4 sequence (whole entry): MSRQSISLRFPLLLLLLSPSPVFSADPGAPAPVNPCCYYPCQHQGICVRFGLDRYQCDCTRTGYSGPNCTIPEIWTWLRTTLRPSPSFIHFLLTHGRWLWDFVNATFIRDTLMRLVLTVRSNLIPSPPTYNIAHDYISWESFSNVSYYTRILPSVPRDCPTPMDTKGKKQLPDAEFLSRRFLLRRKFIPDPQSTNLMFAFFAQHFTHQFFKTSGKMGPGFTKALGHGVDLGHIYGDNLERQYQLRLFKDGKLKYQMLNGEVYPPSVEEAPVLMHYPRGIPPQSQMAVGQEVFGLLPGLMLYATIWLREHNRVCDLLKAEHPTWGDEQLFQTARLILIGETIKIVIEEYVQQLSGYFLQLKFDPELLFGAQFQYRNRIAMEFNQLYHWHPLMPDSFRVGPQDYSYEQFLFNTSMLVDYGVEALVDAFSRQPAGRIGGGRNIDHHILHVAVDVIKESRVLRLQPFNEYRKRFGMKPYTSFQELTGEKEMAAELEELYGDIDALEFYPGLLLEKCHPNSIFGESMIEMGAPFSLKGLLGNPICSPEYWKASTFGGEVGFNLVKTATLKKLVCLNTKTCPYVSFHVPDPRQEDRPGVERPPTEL

[5] = biological target: T5, Prostaglandin G/H synthase 2 (Homo sapiens) (UniProt P35354); assay: Inhibition of human recombinant COX-2 assessed as residual activity by measuring formation of 12-HHT from arachidonic acid at 10 uM by HPLC analysis
T5 sequence (whole entry): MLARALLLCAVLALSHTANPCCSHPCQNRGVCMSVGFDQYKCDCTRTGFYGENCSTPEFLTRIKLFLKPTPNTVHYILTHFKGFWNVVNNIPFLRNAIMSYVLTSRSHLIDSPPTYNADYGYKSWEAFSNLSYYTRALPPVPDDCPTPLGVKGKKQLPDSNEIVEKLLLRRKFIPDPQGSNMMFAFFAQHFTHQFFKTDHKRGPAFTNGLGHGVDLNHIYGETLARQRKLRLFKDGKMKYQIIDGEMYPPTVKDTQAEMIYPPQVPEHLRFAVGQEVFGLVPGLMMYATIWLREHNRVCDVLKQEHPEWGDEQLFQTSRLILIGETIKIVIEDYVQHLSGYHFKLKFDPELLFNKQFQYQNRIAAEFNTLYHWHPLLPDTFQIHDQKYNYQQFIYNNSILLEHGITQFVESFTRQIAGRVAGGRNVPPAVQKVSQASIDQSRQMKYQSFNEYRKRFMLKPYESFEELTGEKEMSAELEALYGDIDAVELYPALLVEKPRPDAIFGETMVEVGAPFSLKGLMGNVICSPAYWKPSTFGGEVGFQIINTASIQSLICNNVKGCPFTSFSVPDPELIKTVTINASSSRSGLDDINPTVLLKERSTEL

CHO [6] = assay: Cytotoxicity against CHO cells expressing human APP and wild type human presenilin-1 assessed as reduction of cell viability up to 40 uM after 24 hrs by Alamar blue assay; format: cell-based, Cricetulus griseus; details: chinese hamster
[7] = Modulation of gamma-secretase expressed in CHO cells co-expressing human APP and wild type human presenilin-1 assessed as reduction of amyloid beta38 production by ELISA
[8] = biological target: T6, Prostaglandin G/H synthase 1 (Ovis aries, UniProt P05979)
T6 sequence (P05979 whole entry): T4 sequence (whole entry)
Description: Inhibition of ovine COX-1 assessed as residual activity by measuring formation of 12-HHT from arachidonic acid by HPLC analysis

[9] = Modulation of gamma-secretase expressed in CHO cells co-expressing human APP and wild type human presenilin-1 assessed as inhibition of amyloid beta42 production by ELISA; format: cell-based
[10] = Modulation of gamma-secretase expressed in CHO cells co-expressing human APP and wild type human presenilin-1 assessed as increase of amyloid beta38 production by ELISA; format: cell-based
CHO [11] = assay: Inhibition of gamma-secretase-mediated notch signaling expressed in CHO cells transfected with Gal4-DNA-binding/VP16 transactivation domain assessed as reduction of reporter activity up to 30 uM by luciferase assay; format: cell-based
[12] = Selectivity ratio of inhibition of gamma-secretase-mediated notch signaling to modulation of gamma-secretase

| SMILES | Activity [1] | Activity [2] | Activity [3] | Activity [4] [%] | Activity [5] [%] | Activity (CHO [6]) | IC50 [7] [µM] | IC50 [8] [µM] | IC50 [9] [µM] | EC50 [10] [µM] | inhibition (CHO [11]) | Ratio [12] |
| --- | --- | --- | --- | --- | --- | --- | --- | --- | --- | --- | --- | --- |
| CCCCC(Cc1ccc(OCCc2ccccc2)cc1OCCc1ccccc1)C(=O)O (stereo not drawn) | inactive | inactive | inactive | 99.1 | 110 | Non-toxic | 5 |  |  |  |  |  |
| CCCCC(Sc1nc(OCCc2ccccc2)cc(OCCc2ccccc2)n1)C(=O)O (stereo not drawn) |  |  |  |  |  |  |  | 16.7 |  |  |  |  |
| CCCC/C(=C\c1cc(OCCC2CCCCC2)ccc1OCCC1CCCCC1)C(=O)O | inactive | inactive | 75% | 76.4 | 123 | Non-toxic |  |  | 3.9 | 3.1 | inactive | 8 |
